{"source": "patent US4559362A", "about": "“Immunopotentiator” (Zaidan Hojin Biseibutsu Kagaku Kenkyu Kai, priority 1982, dated 1985)", "key": {"[1]": {"test_system": "suppressor cells against DTH", "experiment": "Inhibition of the elevation of suppressor cells against DTH (spleen cell transfer), sole swelling", "assay_type": "in vivo, CDF1 mice", "conditions": "transferred suppressor cells; for % suppression: untreated suppressor cells 53", "procedure": "(§1) The pharmacological effects of spermidine will be illustrated by reference to the following experimental examples, in which spermidine was administered as its phosphate dissolved in physiological saline.\nExperiments were conducted to transfer suppressor cells, in accordance with the method of Yamaguchi et al. (Yamaguchi, K. and Kishimoto, S.: Distinction between suppressors of the delayed-type hypersensitivity and the humoral response to sheep erythrocytes. Immunology. 35, 721-731, 1978). CDF1 mice (8 weeks old, female) were intravenously administered with 10^8 sheep erythrocytes, the amount enough to induce the elevation of suppressor cells against DTH. The objective was to promote the production of suppressor cells. Two days later, supermidine was intraperitoneally injected once daily, and this treatment was continued for 3 days. Five days later, spleen cells were collected from the mice, and 4.5×10^7 cells of them were transferred to normal syngenic mice by i.v. injection. Simultaneously, 10^5 sheep erythrocytes, the amount enough to obtain the optimal reaction, was i.v. injected for immunization.\nFour days later, 10^8 sheep erythrocytes were subcutaneously injected to the soles of the mice to induce the reaction. Twenty-four hours later, swellings on the soles were measured to evaluate the efficacy of spermidine."}, "[2]": {"test_system": "alternative pathway of the complement system", "experiment": "Activation of the alternative pathway of the complement system (hemolysis of rabbit blood cells in normal human serum)", "assay_type": "biochemical", "conditions": "for % consumption of complement component C3: 37° C., 60 minutes", "procedure": "The effect of spermidine on the activation of the alternative pathway of the complement system was investigated in accordance with the method of Platts-Mills and Ishizaka (Platt-Mills, T. A. E. and Ishizaka, K.: Activation of the alternative pathway of human complement by rabbit cells. J. Immune. 113, 348-358, 1974).\nSpermidine was added to normal human serum in EGTA buffer solution, and the mixture was heated at 37° C. for 60 minutes. Rabbit blood cells were then added to the mixture. The degree of hemolysis was measured with a spectrophotometer at 412 nm to evaluate the effect of spermidine."}, "IMC cancer cells": {"test_system": "IMC cancer cells", "experiment": "Growth inhibitory effect on cultured IMC cancer cells", "assay_type": "cell-based", "conditions": "48 hours, 37° C., read-out: concentration at which 50% of the original cells were inhibited from growth", "procedure": "A study was conducted on the growth inhibitory effect of spermidine on cultures of IMC cancer cells and L-1210 cells. IMC cancer cells were cultured in an RPMI 1640 medium containing 10% bovine fetus serum and 2-mercaptoethanol, and L-1210 cells in an MEM medium containing 10% calf serum, for 48 hours at 37° C. in 5% carbon dioxide. The number of cultured cells was counted with a Coulter counter to evaluate the degree of cell proliferation. Spermidine was added at the start of incubation."}, "IMC ascites tumor": {"test_system": "IMC ascites tumor", "experiment": "Concomitant treatment with bleomycin and spermidine on IMC ascites tumor, survival", "assay_type": "in vivo, CDF1 mice", "procedure": "as §1\n(c) 1×10^6 IMC cancer cells were transplanted into CDF1 mice by intraperitoneal injection (Day 0). Bleomycin (5 mg/kg) was administered once daily for 5 consecutive days, and spermidine (5 mg/kg) was administered a total of 10 times on alternative days. The effect of concomitant treatment with spermidine and the anticancer drug was evaluated by considering the number of days that the mice survived."}, "[3]": {"experiment": "Toxicity given intravenously to mice", "assay_type": "in vivo", "conditions": "250 mg/kg intravenously", "procedure": "Spermidine used in this invention has a very low toxicity. It is not toxic at a dose of 250 mg/kg when given intravenously to mice."}}, "data": [{"smiles": "NCCCCNCCCN", "note": "[Spermidine, spermidine]", "values": [{"measurement": "Swelling on the sole", "setting": "[1]; 10 μg/mouse i.p. once daily for 3 days", "result": "8.0 ± 0.3", "unit": "× 0.1 mm"}, {"measurement": "% suppression", "setting": "[1]; 10 μg/mouse", "result": 42, "unit": "%"}, {"measurement": "Swelling on the sole", "setting": "[1]; 100 μg/mouse i.p. once daily for 3 days", "result": "10.2 ± 0.4", "unit": "× 0.1 mm"}, {"measurement": "% suppression", "setting": "[1]; 100 μg/mouse", "result": 26, "unit": "%"}, {"measurement": "Swelling on the sole", "setting": "[1]; 1000 μg/mouse i.p. once daily for 3 days", "result": "10.9 ± 0.8", "unit": "× 0.1 mm"}, {"measurement": "% suppression", "setting": "[1]; 1000 μg/mouse", "result": 21, "unit": "%"}, {"measurement": "% consumption of complement component C3", "setting": "[2]; 2 mg/ml", "result": 0, "unit": "%"}, {"measurement": "% consumption of complement component C3", "setting": "[2]; 4 mg/ml", "result": 66.1, "unit": "%"}, {"measurement": "% consumption of complement component C3", "setting": "[2]; 8 mg/ml", "result": 83.6, "unit": "%"}, {"measurement": "activation of the alternative pathway of complement", "setting": "[2]; 4 to 8 mg/ml", "result": "clearly activates the alternative pathway of complement"}, {"measurement": "IC50", "setting": "IMC cancer cells", "result": 2.4, "unit": "µg/mL"}, {"measurement": "Survival rate on Day 60", "setting": "IMC ascites tumor; spermidine (5 mg/kg) alone", "result": "0/10"}, {"measurement": "Survival period", "setting": "IMC ascites tumor; spermidine (5 mg/kg) alone, 10 times on alternative days", "result": "20.1 ± 2.3", "unit": "days"}, {"measurement": "Increase of life span", "setting": "IMC ascites tumor; spermidine (5 mg/kg) alone, control = 100", "result": 114, "unit": "%"}, {"measurement": "life span increase against the control group", "setting": "IMC ascites tumor; spermidine alone", "result": 14, "unit": "%"}, {"measurement": "toxicity", "setting": "[3]", "result": "not toxic"}]}]}
